Assay results reported in patent publication US10857136B2, “Compounds for use in the prevention and/or treatment of non-alcoholic fat liver disease and non-alcoholic steatohepatitis” (SJT MOLECULAR RESEARCH, SL, priority 2017, dated 2020).

Tested on: DIO-NASH mice (C57Bl/6J male mice)
Experiment: NAFLD activity score (NAS) of liver biopsies pre and post study in DIO-NASH mice
Format: in vivo
Details: 50 mg/kg, p.o., b.i.d., 8 weeks, score range 0-8
Experimental: Non-alcoholic fat liver disease (NAFLD) activity score or NAS was evaluated by measurements of steatosis, lobular inflammation, ballooning degeneration and […] of the liver.
Total NAS score represents the sum of scores for steatosis, inflammation, and ballooning, and ranges from 0-8 as follows:
The % of steatosis degree refers to the amount of surface area of the sample involved by steatosis as evaluated on low to medium power examination.
The value given to measure inflammation corresponds to the number of inflammatory foci per field using a 200× magnification. A focus is defined as a cluster, not a row, of >3 inflammatory cells. Acidophil bodies are not included in the inflammatory assessment.
The ballooning degeneration value is measured by the amount of balloon cells, corresponding to degenerated hepatocytes with cleared cytoplasm, enlargement, swelling, rounding and reticulated cytoplasm. […]
Liver samples were fixed in formalin, paraffin embedded, and sections were stained with hematoxylin and eosin (H&E) and Sirius Red. Samples are scored for NAS and fibrosis using of the clinical criteria outlined by Kleiner et al. 2005. […]

Compound: COc1ccc(-c2nc(C(=O)NCCN)cc3c2[nH]c2ccccc23)cc1 [Compound 4a, N(-ethylamine)-1-benzosubstituted-β-carboline-3-carboxamide]
- NAS score change of the liver biopsy pre and post study: generally reduced the NAS score
